# Experimental data reported in ChEMBL document CHEMBL1150408, “Synthesis, induced-fit docking investigations, and in vitro aldose reductase inhibitory activity of non-carboxylic acid containing 2,4-thiazolidinedione derivatives” (Bioorg Med Chem, 2008).
# Molecular target: Aldo-keto reductase family 1 member B1 (Bos taurus) (UniProt P16116)
# Assay: Inhibition of bovine lens ALR2 at 12.5 uM assessed as reduction of D,L-glyceraldehyde by spectrophotometry
# Format: tissue-based
# Details: Lens of camera-type eye
row,SMILES,inhibition
1,NC(=O)CN1C(=O)S/C(=C\c2cccc(Oc3ccccc3)c2)C1=O,8%
2,NC(=O)CN1C(=O)S/C(=C\c2cccc3ccccc23)C1=O,32%
3,COc1cccc(/C=C2\SC(=O)N(CC(N)=O)C2=O)c1,10%
4,COc1cc(/C=C2\SC(=O)N(CC(N)=O)C2=O)ccc1O,31%
5,NC(=O)CN1C(=O)S/C(=C\c2cccc(O)c2)C1=O,16%
6,NC(=O)CN1C(=O)S/C(=C\c2ccc(-c3ccccc3)cc2)C1=O,18%
7,COc1ccc(/C=C2\SC(=O)N(CC(N)=O)C2=O)cc1O,0%
8,COc1ccc(/C=C2\SC(=O)N(CC(N)=O)C2=O)cc1,0%
9,NC(=O)CN1C(=O)S/C(=C\c2ccc3ccccc3c2)C1=O,3%
10,NC(=O)CN1C(=O)S/C(=C\c2ccc(Oc3ccccc3)cc2)C1=O,0%

# Molecular target: Aldo-keto reductase family 1 member B1 (Bos taurus, UniProt P16116)
# Assay: Inhibition of bovine lens ALR2 assessed as reduction of D,L-glyceraldehyde by spectrophotometry
# Design: species or system Lens of camera-type eye
# Details: not given
row,SMILES,IC50
1,O=C(CN1C(=O)S/C(=C\c2cccc3ccccc23)C1=O)NO,4.2 µM
2,NC(=O)CN1C(=O)S/C(=C\c2ccc(O)cc2)C1=O,6.52 µM
3,O=C(CN1C(=O)S/C(=C\c2ccc(O)cc2)C1=O)NO,1.79 µM
4,O=C(CN1C(=O)S/C(=C\c2ccc(Oc3ccccc3)cc2)C1=O)NO,3.67 µM
5,O=C(CN1C(=O)S/C(=C\c2ccc(OCc3ccccc3)cc2)C1=O)NO,7.34 µM
6,O=C(CN1C(=O)S/C(=C\c2ccc(-c3ccccc3)cc2)C1=O)NO,20.3 µM
7,O=C(CN1C(=O)S/C(=C\c2cccc(Oc3ccccc3)c2)C1=O)NO,12.7 µM

# Molecular target: Aldo-keto reductase family 1 member B1 (Bos taurus) (UniProt P16116)
# Assay: Inhibition of bovine lens ALR2 at 25 uM assessed as reduction of D,L-glyceraldehyde by spectrophotometry
# Details: Lens of camera-type eye
row,SMILES,inhibition
1,O=C(CN1C(=O)S/C(=C\c2ccc3ccccc3c2)C1=O)NO,39%

# Test system: not listed separately
# Assay: Dissociation constant, pKa of the compound
# Format: physicochemical
# Details: not given
row,SMILES,pKa
1,O=C1NC(=O)[C@@]2(CCOc3ccc(F)cc32)N1 [SORBINIL],8

# Molecular target: Aldose reductase (Bos taurus)
# Assay: Inhibition of ALR2
# Details: not given
row,SMILES,IC50
1,O=C(O)CN1C(=O)S/C(=C\c2ccc(O)cc2)C1=O,150 nM
